Measurements reported in article PMC7649969, “Pyrazolyl-pyrimidones inhibit the function of human solute carrier protein SLC11A2 (hDMT1) by metal chelation” (RSC Medicinal Chemistry, 2020).
Entries after “also recorded” stand apart in the source; their conditions may differ.

Test: iron precipitation assay (removal of radioactive 55Fe2+ from buffer)
Type: physicochemical
Conditions: pH 5.5, 55Fe2+ 1 μM, compound 10 μM, 15 min
Procedure: Fig. 4 Chemical evidence of divalent metal complexation by hDMT1 inhibitors. (a and b) Isothermal titration calorimetry of pyrazole 13 (0.4 mM) with Cd^2+ (5 mM) in aqueous buffer pH 7.4 and pH 5.5, 25 °C. (c) Calcein quenching assay in aqueous buffer pH 5.5 (2 μM Fe^2+, 10 μM ligand, 1 μM calcein). Fe^2+ (2 μM), ascorbic acid (200 μM) and compounds (20 μM) were incubated for 5 min before the addition of calcein (1 μM) in Krebs buffer at pH 5.5. Fluorescence was measured after 5 min incubation. (d and e) Removal of radioactive ^55Fe^2+ from buffers upon incubation with ligands and centrifugation. ^55Fe^2+ (1 μM) precipitation upon interaction with the indicated compounds (10 μM). ^55Fe^2+ and the indicated compounds were incubated for 15 min, then, an aliquot of the solution supernatant was taken for determination of the remaining ^55Fe^2+. Data was normalized to the values obtained for the Fe^2+ + DMSO (0.1%) solution and represented as mean ± SD (N = 15; 2 independent experiments). Statistical differences were assessed using T-test or Mann–Whitney U test (Fe^2++ DMSO vs. each compound); p > 0.05 = ns; p < 0.05 = *; p < 0.001 = ***. […]
Iron precipitation assay. Polypropylene tubes containing uptake solution (140 mM NaCl, 2.5 mM KCl, 1 mM CaCl2, 1 mM MgCl2, 1.2 mM K2HPO4, 10 mM glucose, 5 mM HEPES, 5 mM MES, pH 7.4) supplemented with 1 µM Ferrous iron (Fe2+), 100 µM Ascorbic Acid, radiolabelled 55Fe2+ (0.5 µCi/mL) and 10 µM of the different compounds under study were incubated for 15 minutes at RT. Then, 10 µL aliquots from each tube were transferred in quadruplicate to a clear bottom, white -well, poly-D-lysine coated 96-well plate (Corning), and 55Fe2+ content was determined by scintillation counting as above described. […]
Statistics. Except when representative experiments are presented, results are shown as Mean ± Standard deviation (SD). Parametric distribution of the averaged values was assessed by […]

| Compound | precipitation of Fe2+ |
| --- | --- |
| Cc1nn(-c2ccccn2)c(O)c1C(=O)Nc1cccc(C(F)(F)F)c1 [Compound 3, reference compound] | only observed precipitation with the literature inhibitor 3; also recorded: high precipitation of iron |

Same assay, conditions: pH 7.4, 55Fe2+ 1 μM, compound 10 μM, 15 min

| Compound | precipitation of Fe2+ |
| --- | --- |
| N=C(N)SCc1cccc2c1oc1c(CSC(=N)N)cccc12 [Compound 1, reference compound] | had no effect |
| Cc1nn(-c2ccccn2)c(O)c1C(=O)Nc1cccc(C(F)(F)F)c1 [Compound 3, reference compound] | induced significant precipitation |
| c1ccc(-c2ccccn2)nc1 [bipyridine] | had no effect |

The remaining lines, values ahead:

| precipitation of Fe2+ | Compound |
| --- | --- |
| had no effect | Cc1cc(O)nc(-n2nc(C)cc2C)n1 [Compound 5] |
| induced significant precipitation | Cc1cc(=O)[nH]c(-n2nc3c(c2C)CCCC3)n1 [Compound 13] |
